From patent US20240287093A1, “HIGH ACTIVITY STING PROTEIN AGONIST” (ADLAI NORTYE BIOPHARMA CO., LTD., priority 2018, published 2024)
pEC50: −log10 of the molar value.

Assays:
Format in all cases: cell-based
STING = target: T1, STING (Homo sapiens, UniProt Q86WV6, G230A/H232R/R293Q/R71H); assay: IFNβ release from THP1 by STING activation (hIFNβ ELISA); details: THP1 cells, 24 h, IFN-β in supernatant; inactive = IFNβ not detected at the maximum concentration of compounds
T1 construct: THP1 was purchased from National Collection of Authenticated Cell Cultures (Cat #TCHu 57); host or cells: THP1
T1 sequence (Q86WV6 whole entry R71H/G230A/H232R/R293Q): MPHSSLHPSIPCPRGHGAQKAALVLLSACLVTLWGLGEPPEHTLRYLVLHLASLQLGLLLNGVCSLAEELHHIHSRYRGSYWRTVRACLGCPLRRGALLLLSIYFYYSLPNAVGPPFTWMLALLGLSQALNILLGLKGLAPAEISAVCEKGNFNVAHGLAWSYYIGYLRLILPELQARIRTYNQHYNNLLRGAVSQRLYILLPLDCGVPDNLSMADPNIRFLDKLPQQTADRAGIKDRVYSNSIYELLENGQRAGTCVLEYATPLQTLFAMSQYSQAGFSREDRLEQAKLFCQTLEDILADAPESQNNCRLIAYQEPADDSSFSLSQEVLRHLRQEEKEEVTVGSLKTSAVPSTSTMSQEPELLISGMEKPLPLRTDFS
Description: Example III: Compound Stimulate THP1 to Release IFNβ by STING Activation
In this assay, activation of STING by compounds was evaluated by detecting their ability to stimulate the secretion of IFN-β (interferon-beta) from THP1. THP1 was purchased from National Collection of Authenticated Cell Cultures (Cat #TCHu 57). The top dose of compounds was setted according to their solubility. First, Compounds were 3 times diluted with medium, 8-dose points in total. The final DMSO concentration was 0.2%. THP1 during the logarithmic phase was resuspended to 2×10^6 cells/ml in assay medium. The THP1-cell suspension was dispensed into a 96-well U bottom plate containing 50 ul of compound diluted in medium. After 24 h incubation at 37° C., 5% CO2, the supernatant was collected. The concentration of IFN-β in the supernatant was measured using a human IFNβ ELISA KIT (R&D, DY814-05). The data was fitted with GraphPad Prism or XLfit to calculate EC50 values.

STING variants (WT) = target: T2, STING variants (WT) (Homo sapiens, UniProt Q86WV6); assay: SEAP reporter assay in HEK-Blue ISG KO-STING cells transfected with STING WT variant (Method 1); details: 24 h
T2 construct: host or cells: HEK-Blue ISG KO-STING cells (Invivogen, hkb-kostg)
Source text: (§1) Example I: STING Variants (WT & HAQ) Activation by Compounds in HEK-Blue™ ISG KO-STING Cells (Method 1)
(§2) Activation of STING can be determined using a SEAP reporter assay in HEK-Blue™ ISG KO-STING cells (Invivogen, cat #hkb-kostg) transfected with plasmids expressing STING variants (WT & HAQ) (referred to WO2017/175147A1). STING variants (WT & HAQ) vector were constructed based on STING-232H vector (Origene, RC208418). GFP vector (VT2069) was bought from Youbio. The detailed protocol as follows: HEK-Blue™ ISG KO-STING cells were harvest and seeding into 96 well plate, the final cell number was 0.8×10^5 cells/well. Transfections were prepared using Lipofectamine 2000 (Invitrogen, Cat #11668-027) following the manufacturer's instructions (Lipo2000:DNA=1:10), 20 ul of transfection suspension containing 1 ng STING vector was added to cell culture plate and incubated at 37° C., 5% CO2 for 24 h. After 24 hours incubation, compounds were added at proper concentration, and the final DMSO concentration was 0.5%. After 24 h incubation, the supernatant was collected to detect SEAP signal using Great EscAPe SEAP chemiluminescence KIT (Clontech, cat #631738) and cells were collected to detect cell viability using CellTiter-Glo Luminescent Cell Viability Assay (Promega, cat #G7573) following the manufacturer's instructions. The data were described by the ratio of the stimulating signal of compounds to 0.5% DMSO.

STING variants (HAQ) = target: T3, STING variants (HAQ) (Homo sapiens, UniProt Q86WV6, G230A/R293Q/R71H); assay: SEAP reporter assay in HEK-Blue ISG KO-STING cells transfected with STING HAQ variant (Method 1); details: 24 h
T3 construct: host or cells: HEK-Blue ISG KO-STING cells (Invivogen, hkb-kostg)
T3 sequence (Q86WV6 whole entry R71H/G230A/R293Q): as the sequence (Q86WV6 whole entry R71H/G230A/H232R/R293Q) above, with R232H counted along it
Source text: as §1, §2

[1] = compound concentration 169.6 μM
[2] = compound concentration 15.65 μM

| pEC50 (STING) | Fold change related to DMSO control, WT (STING variants (WT); compound concentration 25 μM) [fold] | Fold change related to DMSO control, HAQ (STING variants (HAQ); compound concentration 25 μM) [fold] | SMILES | other results |
| --- | --- | --- | --- | --- |
|  | 1.59 | 27.44 | CCn1nc(C)cc1C(=O)Nc1nc2cc(C(N)=O)cc3c2n1[C@@H](CCNC(=O)OCc1ccccc1)CO3 [Example 14, Benzyl (S)-(2-(7-carbamoyl-2-(1-ethyl-3-methyl-1H-pyrazole-5-carboxamido)-3,4-dihydro-5-oxa-1,2a-diazaacenaphthylen-3-yl)ethyl)carbamate] |  |
|  | 2.78 | 25.85 | CCn1nc(C)cc1C(=O)Nc1nc2cc(C(N)=O)cc3c2n1[C@@H](CCNC(=O)/C=C/c1ccccc1OC)CO3 [Example 39, (S,E)-2-(1-ethyl-3-methyl-1H-pyrazole-5-carboxamido)-3-(2-(3-(2-methoxyphenyl)acrylamido)ethyl)-3,4-dihydro-5-oxa-1,2a-diazaacenaphthylene-7-carboxamide] |  |
|  | 2.96 | 22.76 | CCn1nc(C)cc1C(=O)Nc1nc2cc(C(N)=O)cc3c2n1[C@@H](CCNC(=O)/C=C/c1cccc(F)c1)CO3 [Example 38, (S,E)-2-(1-ethyl-3-methyl-1H-pyrazole-5-carboxamido)-3-(2-(3-(3-fluorophenyl)acrylamido)ethyl)-3,4-dihydro-5-oxa-1,2a-diazaacenaphthylene-7-carboxamide] |  |

More lines, now with the values behind:

| SMILES | pEC50 (STING) | Fold change related to DMSO control, WT (STING variants (WT); compound concentration 25 μM) [fold] | Fold change related to DMSO control, HAQ (STING variants (HAQ); compound concentration 25 μM) [fold] | other results |
| --- | --- | --- | --- | --- |
| CCn1nc(C)cc1C(=O)Nc1nc2cc(C(N)=O)cc3c2n1CC(C)(C)CN3CCO [Example 76, 1-(1-ethyl-3-methyl-1H-pyrazole-5-carboxamido)-6-(2-hydroxyethyl)-8,8-dimethyl-6,7,8,9-tetrahydro-2,6,9a-triazabenzo[cd]azulene-4-carboxamide] | 5.00 |  |  |  |
| CCn1nc(C)c(F)c1C(=O)Nc1nc2cc(C(N)=O)cc3c2n1CC1(CCC1)CO3 [Example 78, 1-(1-Ethyl-4-fluoro-3-methyl-1H-pyrazole-5-carboxamido)-7H,9H-6-oxa-2,9a-diazaspiro[benzo[cd]azulene-8,1′-cyclobutan]-1,2a,2a1(5a),4-tetraene-4-carboxamide] | 4.72 |  |  |  |
| CCn1nc(C)cc1C(=O)Nc1nc2cc(C(N)=O)cc3c2n1C(C)(C)CO3 [Example 21, 2-(1-Ethyl-3-methyl-1H-pyrazole-5-carboxamido)-3,3-dimethyl-3,4-dihydro-5-oxa-1,2a-diazaacenaphthylene-7-carboxamide] |  | 2.18 | 8.87 |  |
| CCn1nc(C)cc1C(=O)Nc1nc2cc(C(N)=O)cc3c2n1CC1(CCC1)CO3 [Example 77, 1-(1-ethyl-3-methyl-1H-pyrazole-5-carboxamido)-7H,9H-6-oxa-2,9a-diazaspiro[benzo[cd]azulene-8,1′-cyclobutan]-1,2a,2a1(5a),4-tetraene-4-carboxamide] | 4.68 |  |  |  |
| CCn1nc(C)cc1C(=O)Nc1nc2cc(C(N)=O)cc3c2n1[C@@H](CCNC(=O)OCCc1ccccc1)CO3 [Example 42, Phenethyl (S)-(2-(7-carbamoyl-2-(1-ethyl-3-methyl-1H-pyrazole-5-carboxamido)-3,4-dihydro-5-oxa-1,2a-diazaacenaphthylen-3-yl)ethyl)carbamate] |  |  |  | Fold change related to DMSO control, WT (STING variants (WT); compound concentration 21.4 μM): 1.10 fold; Fold change related to DMSO control, HAQ (STING variants (HAQ); compound concentration 21.4 μM): 10.52 fold |
| CCn1nc(C)cc1C(=O)Nc1nc2cc(C(N)=O)cc3c2n1[C@@H](CCNC(=O)/C=C/c1ccc(C#N)cc1)CO3 [Example 37, (S,E)-3-(2-(3-(4-cyanophenyl)acrylamido)ethyl)-2-(1-ethyl-3-methyl-1H-pyrazole-5-carboxamido)-3,4-dihydro-5-oxa-1,2a-diazaacenaphthylene-7-carboxamide] |  |  |  | Fold change related to DMSO control, WT (STING variants (WT); compound concentration 3.11 μM): 1.07 fold; Fold change related to DMSO control, HAQ (STING variants (HAQ); compound concentration 3.11 μM): 1.85 fold |
| CCn1nc(C)cc1C(=O)Nc1nc2cc(C(N)=O)cc3c2n1[C@@H](COCc1ccccc1)CO3 [Example 30, (S)-3-((Benzyloxy)methyl)-2-(1-ethyl-3-methyl-1H-pyrazole-5-carboxamido)-3,4-dihydro-5-oxa-1,2a-diazaacenaphthylene-7-carboxamide] |  | 1.63 | 35.09 |  |
| CCn1nc(C)cc1C(=O)Nc1nc2cc(C(N)=O)cc3c2n1CC(C)(C)CN3CCOC [Example 73, 1-(1-ethyl-3-methyl-1H-pyrazole-5-carboxamido)-6-(2-methoxyethyl)-8,8-dimethyl-6,7,8,9-tetrahydro-2,6,9a-triazabenzo[cd]azulene-4-carboxamide] | 5.17 |  |  |  |
| CCn1nc(C)cc1C(=O)Nc1nc2cc(C(N)=O)cc3c2n1CC(C)(C)CN3CCOCc1ccccc1 [Example 75, 6-(2-(benzyloxy)ethyl)-1-(1-ethyl-3-methyl-1H-pyrazole-5-carboxamido)-8,8-dimethyl-6,7,8,9-tetrahydro-2,6,9a-triazabenzo[cd]azulene-4-carboxamide] | 5.11 |  |  |  |
| CCn1nc(C)cc1C(=O)Nc1nc2cc(C(N)=O)cc3c2n1CC(C)(C)CN3CCCOC [Example 74, 1-(1-Ethyl-3-methyl-1H-pyrazole-5-carboxamido)-6-(3-methoxypropyl)-8,8-dimethyl-6,7,8,9-tetrahydro-2,6,9a-triazabenzo[cd]azulene-4-carboxamide] | 4.93 |  |  |  |
| CCn1nc(C)cc1C(=O)Nc1nc2cc(C(N)=O)cc3c2n1[C@@H](CCNC(=O)OC(C)(C)C)CO3 [Example 6, tert-Butyl (S)-(2-(7-carbamoyl-2-(1-ethyl-3-methyl-1H-pyrazole-5-carboxamido)-3,4-dihydro-5-oxa-1,2a-diazaacenaphthylen-3-yl)ethyl)carbamate] |  |  |  | Fold change related to DMSO control, WT (STING variants (WT); [1]): 0.76 fold; Fold change related to DMSO control, HAQ (STING variants (HAQ); [1]): 4.41 fold |
| CCn1nc(C)cc1C(=O)Nc1nc2cc(C(N)=O)cc3c2n1[C@@H](CCCCNC(=O)OCc1ccccc1)CO3 [Example 17, Benzyl (S)-(4-(7-carbamoyl-2-(1-ethyl-3-methyl-1H-pyrazole-5-carboxamido)-3,4-dihydro-5-oxa-1,2a-diazaacenaphthylen-3-yl)butyl)carbamate] |  | 1.76 | 37.64 |  |
| CCOC(=O)/C=C/C1(C)COc2cc(C(N)=O)cc3nc(NC(=O)c4cc(C)nn4CC)n1c23 (stereo not drawn) [Example 5, Ethyl (E)-3-(7-carbamoyl-2-(1-ethyl-3-methyl-1H-pyrazole-5-carboxamido)-3-methyl-3,4-dihydro-5-oxa-1,2a-diazaacenaphthylen-3-yl)acrylate] |  |  |  | Fold change related to DMSO control, WT (STING variants (WT); [2]): 1.52 fold; Fold change related to DMSO control, HAQ (STING variants (HAQ); [2]): 1.20 fold |
| CCn1nc(C)cc1C(=O)Nc1nc2cc(C(N)=O)cc3c2n1C(C)(CN(C)CCc1ccccc1)CO3 (stereo not drawn) [Example 29, 2-(1-Ethyl-3-methyl-1H-pyrazole-5-carboxamido)-3-methyl-3-((methyl(phenethyl)amino)methyl)-3,4-dihydro-5-oxa-1,2a-diazaacenaphthylene-7-carboxamide] |  | 1.06 | 1.14 |  |
| CCn1nc(C)cc1C(=O)Nc1nc2cc(C(N)=O)cc3c2n1C(C)(CO)CO3 (stereo not drawn) [Example 3, 2-(1-Ethyl-3-methyl-1H-pyrazole-5-carboxamido)-3-(hydroxymethyl)-3-methyl-3,4-dihydro-5-oxa-1,2a-diazaacenaphthylene-7-carboxamide] |  |  |  | Fold change related to DMSO control, WT (STING variants (WT); compound concentration 125 μM): 1.79 fold; Fold change related to DMSO control, HAQ (STING variants (HAQ); compound concentration 125 μM): 3.54 fold |
